Consider twelve molecules from ChEMBL document CHEMBL1201862, “PubChem BioAssay data set” (2004).

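How tested: cells in 96-well plates exposed to compound for 48 hours at five concentrations. Here, GI50 denotes the concentration required for 50% inhibition of growth.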 Calls of active or inactive are those of the source. Cut-off read from the data, not from the text of the source: active = GI50 up to about 1.1 µM and inactive = higher. Where only a bound is given, the exact number is not on record here.

Some test systems named below: SF-268; HCC 2998; MDA-N; NCI-H226; HCT-116; SNB-75; M14; NCI/ADR-RES; HL-60; Malme-3M; SK-MEL-28; SK-MEL-2; NCI-H522; PC-3; SK-OV-3; U-251; SK-MEL-5; CAKI-1; T47D.
What all share (experiment): NCI tumour cell line growth inhibition, 48 h

Take `N#CC1C(=O)NC23CCCCC2C1c1ccccc1O3` (stereo not given): the GI50 with SF-268 was 2.1 µM (inactive); in the assay with HCC 2998, > 100 µM (inactive); with MDA-N it was > 100 µM (inactive); in the assay on NCI-H226, > 100 µM (inactive); in the assay with HCT-116, > 100 µM (inactive); with SNB-75, > 100 µM (inactive). The GI50 in the assay on M14 is > 100 µM (inactive); in the assay on NCI/ADR-RES, > 100 µM (inactive); in the assay with HL-60 it was > 100 µM (inactive); with Malme-3M, > 100 µM (inactive); in the assay with SK-MEL-28 it was 53.5 µM (inactive); with SK-MEL-2, > 100 µM (inactive). The GI50 in the assay on NCI-H522, with PC-3, in the assay with SK-OV-3, in the assay on U-251, in the assay on SK-MEL-5 and with CAKI-1 was > 100 µM (inactive) each time.
In the case of `COc1cc2nc3c(=C(C#N)C#N)c4ccccc4n3c(=O)c2cc1OC`, the GI50 was 75.7 µM (inactive) with SF-268; > 100 µM (inactive) in the assay with HCC 2998; > 100 µM (inactive) with MDA-N; > 100 µM (inactive) in the assay with NCI-H226; > 100 µM (inactive) with HCT-116; 41.6 µM (inactive) in the assay on SNB-75. The GI50 in the assay with M14, in the assay on NCI/ADR-RES, with T47D, in the assay with SK-MEL-2, in the assay on NCI-H522 and in the assay with PC-3 was > 100 µM (inactive) throughout. The GI50 in the assay on SK-OV-3, in the assay on U-251, with SK-MEL-5 and in the assay on CAKI-1 was > 100 µM (inactive) throughout.
Turning to `Cc1ccc2c(c1)C(=C(C#N)C#N)CCCS2(=O)=O`, the GI50 with SF-268, in the assay on HCC 2998, in the assay with MDA-N, in the assay with NCI-H226, in the assay with HCT-116 and in the assay on SNB-75 was > 100 µM (inactive) in each case. Further, the GI50 in the assay on M14, with NCI/ADR-RES, with HL-60, in the assay with T47D, with SK-MEL-28 and in the assay on SK-MEL-2 was > 100 µM (inactive) in each case. The GI50 with PC-3, in the assay with SK-OV-3, with U-251 and with CAKI-1 was > 100 µM (inactive) throughout.
On to `C=C1CC/C=C(/C(=O)O)CC[C@H]2[C@@H]1CC2(C)C`, for which the GI50 with SF-268, in the assay with HCC 2998, in the assay on MDA-N, with NCI-H226, in the assay on HCT-116 and in the assay with M14 was > 100 µM (inactive) each time. In addition, the GI50 in the assay on HL-60, with Malme-3M, with T47D, in the assay with SK-MEL-28, in the assay with SK-MEL-2 and in the assay with NCI-H522 was > 100 µM (inactive) throughout. For the same molecule, the GI50 with PC-3, in the assay on SK-OV-3, in the assay on U-251, with SK-MEL-5 and with CAKI-1 was > 100 µM (inactive) each time.
In the case of `Nc1nc(=O)n(C2OC(CO)C(O)C2O)c2ncc(-c3ccc(-c4ccccc4)cc3)nc12` (stereo not given), the GI50 in the assay with SF-268 was > 100 µM (inactive); with HCC 2998 it was > 100 µM (inactive); in the assay with MDA-N it was > 100 µM (inactive); in the assay on NCI-H226, 24.1 µM (inactive); in the assay with HCT-116 it was > 100 µM (inactive); in the assay with SNB-75, 28.4 µM (inactive). The GI50 in the assay with NCI/ADR-RES, in the assay with Malme-3M, with T47D, in the assay on SK-MEL-2, in the assay with NCI-H522 and in the assay on PC-3 was > 100 µM (inactive) throughout. Moreover, the GI50 with SK-OV-3 is > 100 µM (inactive); with U-251, 31.3 µM (inactive); in the assay with SK-MEL-5, > 100 µM (inactive); in the assay with CAKI-1, > 100 µM (inactive).
On to `Oc1ccc2c(c1)CCc1c-2n(CCN2CCOCC2)c2ccc(O)cc12`, for which the GI50 in the assay on SF-268 was 31.8 µM (inactive); with MDA-N, 45.3 µM (inactive); in the assay on NCI-H226, 22.8 µM (inactive); in the assay on HCT-116 it was 41.3 µM (inactive); in the assay with SNB-75, 16.8 µM (inactive); with M14, 39 µM (inactive). The GI50 in the assay with NCI/ADR-RES is 21 µM (inactive); in the assay on HL-60, 55.6 µM (inactive); in the assay on Malme-3M, 25.3 µM (inactive); with T47D, 31.1 µM (inactive); in the assay with SK-MEL-28, 29.3 µM (inactive); with SK-MEL-2 it was 27.1 µM (inactive). Further, the GI50 in the assay on PC-3 was 35.3 µM (inactive); with SK-OV-3, 46.3 µM (inactive); in the assay with U-251, 35.9 µM (inactive); with SK-MEL-5, 15.7 µM (inactive); in the assay on CAKI-1, 24.8 µM (inactive).
For the molecule `COC(=O)C1=CC2C(=O)c3ccccc3C1(c1ccccc1)N2C1CCCCC1` (stereo not given), the GI50 is 27.2 µM (inactive) with SF-268; 3.15 µM (inactive) in the assay with HCC 2998; 23.7 µM (inactive) in the assay with MDA-N; 24.7 µM (inactive) in the assay with NCI-H226; 25.1 µM (inactive) in the assay with HCT-116; 35.1 µM (inactive) in the assay with SNB-75. Moreover, the GI50 in the assay on M14 was 20 µM (inactive); with NCI/ADR-RES, 27.9 µM (inactive); in the assay with HL-60, 11.6 µM (inactive); in the assay with Malme-3M, 22.6 µM (inactive); with SK-MEL-28 it was 17.6 µM (inactive); in the assay on SK-MEL-2 it was 12.3 µM (inactive). The GI50 in the assay with NCI-H522 was 27.9 µM (inactive); in the assay on PC-3 it was 9.62 µM (inactive); in the assay on SK-OV-3 it was 31 µM (inactive); in the assay with U-251, 16.6 µM (inactive); with SK-MEL-5, 10.1 µM (inactive); with CAKI-1, 20.5 µM (inactive).
Consider `Clc1ccc(C2=NNC(c3cccc(Cl)c3)C2)cc1` (stereo not given), for which the GI50 with SF-268 is 29.3 µM (inactive); with MDA-N, 21.1 µM (inactive); with NCI-H226 it was 35.6 µM (inactive); in the assay with HCT-116, 26.7 µM (inactive); in the assay on SNB-75 it was 26.8 µM (inactive); in the assay with M14, 53.7 µM (inactive). The GI50 with NCI/ADR-RES was 26.5 µM (inactive); in the assay on HL-60, 34.5 µM (inactive); in the assay on Malme-3M, 28.1 µM (inactive); in the assay with T47D, 44.6 µM (inactive); with SK-MEL-2, 0.362 µM (active); in the assay on NCI-H522 it was 2.98 µM (inactive). Further, the GI50 was 24.9 µM (inactive) in the assay on PC-3; 22 µM (inactive) with SK-OV-3; 16.5 µM (inactive) in the assay with U-251; 14.8 µM (inactive) in the assay with SK-MEL-5; 26.2 µM (inactive) in the assay on CAKI-1.
With `CC(C)=CCC[C@@H](C)/C=C/C=C(\C)C(=O)CC[C@@H]1CC[N@+]2(C)CCCC[C@H]12`, the GI50 in the assay with SF-268 is 71.1 µM (inactive); in the assay with HCC 2998 it was > 100 µM (inactive); in the assay with MDA-N it was > 100 µM (inactive); in the assay with NCI-H226, 4.47 µM (inactive); in the assay with HCT-116, > 100 µM (inactive); in the assay with SNB-75, 49.2 µM (inactive). Besides, the GI50 in the assay on M14 is > 100 µM (inactive); in the assay on NCI/ADR-RES, > 100 µM (inactive); with Malme-3M it was 79.8 µM (inactive); in the assay with T47D, > 100 µM (inactive); in the assay on SK-MEL-28 it was > 100 µM (inactive); in the assay on SK-MEL-2 it was > 100 µM (inactive). Besides, the GI50 is 35 µM (inactive) with NCI-H522; 31 µM (inactive) in the assay on PC-3; 23.9 µM (inactive) in the assay with U-251; > 100 µM (inactive) in the assay on SK-MEL-5; > 100 µM (inactive) with CAKI-1.
On to `O=C(C/N=C(\CN(c1ccccc1)c1ccccc1)Oc1c(Cl)cc(Cl)cc1Cl)n1cnc2ccccc21`, for which the GI50 in the assay on SF-268 was > 100 µM (inactive); with HCC 2998, 71.6 µM (inactive); in the assay with MDA-N, 59.8 µM (inactive); in the assay on NCI-H226, 19.5 µM (inactive); with HCT-116, 34 µM (inactive); with SNB-75, > 100 µM (inactive). In addition, the GI50 was > 100 µM (inactive) in the assay with M14; 38.3 µM (inactive) in the assay on NCI/ADR-RES; 32.7 µM (inactive) in the assay on HL-60; 52.6 µM (inactive) with Malme-3M; 33.3 µM (inactive) in the assay on T47D; > 100 µM (inactive) with SK-MEL-28. Further, the GI50 was 84.1 µM (inactive) in the assay on NCI-H522; 27.5 µM (inactive) in the assay with PC-3; > 100 µM (inactive) with SK-OV-3; 82.6 µM (inactive) in the assay on U-251; 76 µM (inactive) with SK-MEL-5.
Regarding `CCOC(=O)C1(C/C=C/CCl)CCCC1=O` (stereo not given), the GI50 in the assay with SF-268 was 25.4 µM (inactive); with MDA-N it was 17.9 µM (inactive); in the assay with NCI-H226 it was 14.3 µM (inactive); with HCT-116, 17.2 µM (inactive); with SNB-75, 19.8 µM (inactive); in the assay on M14, 18.1 µM (inactive). Also, the GI50 in the assay on NCI/ADR-RES is 19.5 µM (inactive); with HL-60 it was 38.2 µM (inactive); in the assay on Malme-3M, 22.5 µM (inactive); in the assay on T47D, 23.1 µM (inactive); in the assay on SK-MEL-28 it was 23 µM (inactive); in the assay with SK-MEL-2 it was 19 µM (inactive). The GI50 with NCI-H522 was 23.7 µM (inactive); with PC-3 it was 30.5 µM (inactive); in the assay on SK-OV-3, 33.3 µM (inactive); in the assay with U-251, 24.5 µM (inactive); in the assay with SK-MEL-5, 15.6 µM (inactive); in the assay with CAKI-1, 29.6 µM (inactive).
On to `COc1ccc2c(c1)/C(=C\c1c(Cl)n(-c3ccccc3)c3ccccc13)C(=O)N2`, for which the GI50 in the assay with SF-268 is 2.85 µM (inactive); with HCC 2998, 4.89 µM (inactive); with MDA-N, 1.74 µM (inactive); with NCI-H226, 2.28 µM (inactive); in the assay with HCT-116 it was 2.99 µM (inactive); in the assay on SNB-75 it was 6.59 µM (inactive). Also, the GI50 was 3.2 µM (inactive) with M14; 2.49 µM (inactive) in the assay on NCI/ADR-RES; 2.72 µM (inactive) in the assay with HL-60; 2.83 µM (inactive) with Malme-3M; 5.94 µM (inactive) with T47D; 9.31 µM (inactive) with SK-MEL-28. Moreover, the GI50 in the assay with SK-MEL-2 is 6.73 µM (inactive); with PC-3 it was 7.23 µM (inactive); in the assay on SK-OV-3, 7.36 µM (inactive); with U-251 it was 4.19 µM (inactive); in the assay with SK-MEL-5, 4.34 µM (inactive); in the assay on CAKI-1 it was 4.08 µM (inactive).
